Experiment: Photoacoustic characteristic evaluation (photoacoustic signal measurement)
Details: pulse laser 790 nm, 12 mJ/cm^2; contrast agent in distilled water
Procedure: Regarding the measurement of a photoacoustic signal, a sample was irradiated with pulse laser light, a photoacoustic signal from the sample was detected by using a piezoelectric element and was measured by a digital oscilloscope after being amplified by a high-speed preamplifier. Specific conditions were as described below. A titanium sapphire laser (produced by Lotis) was used as a light source. Regarding the conditions, the wavelength was 790 nm, the energy density was 12 mJ/cm^2, the pulse width was 20 nanoseconds, and the pulse repetition was 10 Hz. Model V303 (produced by Panametrics-NDT) was used as an ultrasonic transducer. Regarding the conditions, the center band was 1 MHz, the element size was φ0.5, the measurement distance was 25 mm (non-focus), and the amplification was +30 dB (ultrasonic preamplifier Model 5682 produced by Olympus Corporation). A measurement container was a polystyrene cuvette, the optical path length was 0.1 cm, and the sampling capacitor was about 200 μL. The measurement was performed by using DPO4104 (produced by Tektronix Corporation), where the conditions were as described below, trigger: photoacoustic light was detected by a photodiode data acquisition: average of 128 times (128 pulses)

For CC1(C)C(/C=C/C=C/C=C/C=C2\N(CCCCS(=O)(=O)O)c3ccc4ccccc4c3C2(C)C)=[N+](CCCCS(=O)(=O)[O-])c2ccc3ccccc3c21 [Contrast agent (C-1), Indocyanine green], the “Photoacoustic signal intensity ratio” value was 1.0.
